The numbers were not newly measured in US8614057B2, “Methods for collecting and detecting oligonucleotides” (The Invention Science Fund I, LLC, priority 2008, dated 2013), which cites them from elsewhere.

A word on the Ki: it is a dissociation constant, usually derived from enzyme kinetics or from competition with a known ligand. For orientation: half-life means the time in which the quantity being followed falls by half.

For data set [1] the following is noted: subcutaneous; 40, 8, and 1.6 μg injections once daily over 35 days.
Data set [2] has as its target T1, RNase-4 (Homo sapiens, UniProt P34096).
T1 sequence (P34096 29-147): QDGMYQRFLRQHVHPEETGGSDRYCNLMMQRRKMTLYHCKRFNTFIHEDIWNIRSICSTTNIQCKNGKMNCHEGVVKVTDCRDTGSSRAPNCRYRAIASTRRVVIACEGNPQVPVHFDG

Data set [3] concerns the target RNase-2 (eosinophil derived neurotoxin) (Homo sapiens, UniProt P10153).
Data set [4] has as its target T2, RNAse A (Bos taurus, UniProt P61823).
T2 sequence (P61823 27-150): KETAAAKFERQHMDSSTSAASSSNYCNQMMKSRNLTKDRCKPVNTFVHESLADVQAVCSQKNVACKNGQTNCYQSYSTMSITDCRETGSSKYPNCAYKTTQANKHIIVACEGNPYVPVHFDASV

For data set [5] the following is noted: in humans.
Data set [6] addresses T2, RNAse A. Conditions: RNAse A catalysis.

Read-outs that look alike come from different tables or passages of the source.

RNase-2 (eosinophil derived neurotoxin), sequence (P10153 28-161): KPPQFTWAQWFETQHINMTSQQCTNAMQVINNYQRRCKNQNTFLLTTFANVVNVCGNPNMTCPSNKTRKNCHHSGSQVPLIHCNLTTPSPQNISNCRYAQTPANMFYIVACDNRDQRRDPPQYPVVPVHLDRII

`Nc1ccc(N=Nc2ccc(-c3ccc(O)cc3)cc2)c2ccc(S(=O)(=O)O)cc12` [8-amino-5-(4′-hydroxylbiphenyl-4-ylazo)naphthalene-2-sulfonate]: the “toxicity to the animals” value in data set [1] is recorded as “without overt toxicity”.
As for `Nc1ncnc2c1ncn2C1OC(COP(=O)(O)OP(=O)(O)OC2CC(n3ccc(=O)[nH]c3=O)OC2COP(=O)(O)O)C(OP(=O)(O)O)C1O` (centres unmarked) [pdUppAp, 5′-phosphor-2′-deoxyuridine 3′-pyrophosphate, P′-P5-ester with adenosine 3′-phosphate], the “inhibition of RNase-4 activity” value in data set [2] was “inhibits the activity”. For the same compound, the “inhibition of RNase-2 activity” value in data set [3] is reported as “inhibits the activity”. The values for the Ki in data set [4] (pH 5.9) and in data set [4] (pH 7.0) were 27 nM and 240 nM, respectively.
Etanercept: the half-life in data set [5] is 70 h.
Consider oligo(vinylsulfonic acid), for which the Ki in data set [6] (0 mM sodium chloride end of the range 0 to 100 mM, read-out: inhibition constant (Ki), lower end of reported range) was approximately 0.01 nM; in data set [6] (100 mM sodium chloride end of the range 0 to 100 mM, read-out: inhibition constant (Ki), upper end of reported range) it was approximately 120 nM.
